From US20260242359A1, “IRHOM2 INHIBITORS AND USES THEREOF” (NEW YORK SOCIETY FOR THE RELIEF OF THE RUPTURED AND …, priority 2023, published 2026)
Where two headings read alike, the source gives them in different places.

What was measured:
[1] = tested on: LPS-induced release of endogenous TNFα from human THP-1 macrophage cells; assay: Example 12: ELISA-based TNFα release assay, LPS-induced, THP-1 macrophage cells; assay type: cell-based; conditions: for inhibition at 10 µM: Homo sapiens, THP-1, 2 h, read-out: inhibition of LPS-induced release of TNFα from THP-1 cells
Description: In the following study, ELISA-based TNFα release assay was performed to verify the inhibitory effects of Compounds 1, 2, 3, 4, 5, and 7 on LPS-induced release of endogenous TNFα from human THP-1 macrophage cells. The ELISA-based TNFα release assay that was used in this example is described below.
In brief, on day 1, Nunc black MaxiSorp® 96-well plates (Thermo Fisher Scientific, USA) were coated overnight with 100 μl per well of mouse anti-human TNFα capture antibody (provided as part of the DuoSet ELISA kit) at 4 μg/ml TBS at 4° C. On day 2, the capture antibody solution was removed and MaxiSorp® plates were blocked with 300 μl per well of TBS, 1% BSA at room temperature for 3 hours. Meanwhile, 20,000 THP-1 (American Type Culture Collection, USA) cells in 80 μl of normal growth medium were seeded in each well of Greiner CELLSTAR V-bottom 96-well plates (Thermo Fisher Scientific, USA) and pre-incubated with 20 μl per well of standard growth medium supplemented with Batimastat (BB94, Abcam, UK) at 50 μM as positive control (for a final concentration of 10 μM in the resulting 100 μl sample volume), compounds of the invention at 50 μM (for a final concentration of 10 μM in the resulting 100 μl sample volume) and in case of Buffer stimulated and unstimulated controls with DMSO (Carl Roth, Germany) at 50 μM (for a final concentration of 10 μM in the resulting 100 μl sample volume) at 37° C., 5% CO2 for 30 minutes. Subsequently, cells (except those for unstimulated controls) were stimulated with 20 μl per well of LPS (Sigma-Aldrich, USA) at 300 ng/ml growth medium for a final concentration of 50 ng/ml at 37° C., 5% CO2 for 2 hours. Afterwards, the 96-well plates were centrifuged to pellet cells. In parallel, blocking buffer was removed from the MaxiSorp® plates and plates were washed 4 times with 350 μl per well of TBS-T (Carl Roth, Germany) on a 96-head plate washer (Tecan Group, Switzerland). To avoid drying-up, 30 μl of TBS were added to each well of the MaxiSorp® plates immediately, followed by the transfer of 70 μl of cell-free supernatant per sample. Additionally, 100 μl of recombinant human TNFα protein (provided as part of the DuoSet ELISA kit) diluted in TBS at defined concentrations were added to the plate as standard references. Thereafter, 100 μl per well of biotinylated goat anti-human TNFα detection antibody (provided as part of the DuoSet ELISA kit) at 50 ng/ml TBS were added and, protected from direct light, plates were incubated at room temperature for 2 hours. After 4 times washing with 350 μl per well of TBS-T (Carl Roth, Germany) on a 96-head plate washer (Tecan Group, Switzerland) and careful removal of all buffer traces after the fourth cycle, 100 μl of streptavidin-AP (R&D Systems, USA) diluted 1:10,000 in TBS were added to each well and, again protected from direct light, plates were incubated at room temperature for 30 minutes. Following another round of 4 times washing with 350 μl per well of TBS-T (Carl Roth, Germany) on a 96-head plate washer (Tecan Group, Switzerland) and careful removal of all buffer traces after the fourth cycle, 100 μl of AttoPhos substrate solution (Promega, USA) was added for incubation in the dark at room temperature for 1 hour. Using an infinite M1000 PRO (Tecan Group, Switzerland) microplate reader, the fluorescence of each well was collected at an excitation wavelength of 435 nm and an emission wavelength of 555 nm.
The delta between Buffer stimulated and Buffer unstimulated was defined 100% inhibition.

[2] = tested on: PMA-stimulated TGFα release from HEK-293 cells (substrate of iRhom1/ADAM17 and iRhom2/ADAM17); assay: Counter screen (Example 4b): PMA-stimulated TGFα release from HEK-293 cells, AP readout; assay type: cell-based; conditions: Homo sapiens, HEK293, HEK-293 cells expressing TGFα-AP, PMA 100 ng/mL, 2 h
Description: A tertiary counterscreen was also performed to monitor the release of TGFα, which is a substrate of iRhom1/ADAM17 and iRhom2/ADAM17, so its release should not be blocked by an iRhom2-selective inhibitor (Maretzky T et al. (July 2013), “iRhom2 controls the substrate selectivity of stimulated ADAM117-dependent ectodomain shedding”, PNAS 110(28): 11433-11438; and Li X et al. (May 2015), “iRhoms 1 and 2 are essential upstream regulators of ADAM17-dependent EGFR signaling”, PNAS 112(19): 6080-6085).
Expression plasmids for alkaline phosphatase (AP)-fused human KL2 and TGFα had been previously designed and generated through gene synthesis followed by subcloning into the pcDNA3.1(+)/Hygro expression vector. […] Subsequently, DNA amplifications were performed to obtain sufficient amounts of the expression vectors. The quality of DNA and gene sequences were confirmed through restriction digest and Sanger sequencing. In parallel, cell culture of HEK-293 cells was initiated. Master and working cell banks were prepared, scaled up and transfected with the respective constructs by electroporation. During cell culturing, cell density and viability were monitored to ensure optimal conditions for the transfections. After PMA stimulation, AP-coupled KL2 or TGFα were detected by measurement of AP activity in the supernatant.
After electroporation, cells were further cultured in presence of selection antibiotics, hygromycin B, to generate stably transfected polyclonal cell pools. For both assays, KL2 and TGFα shedding, the respective selected pool turned out to be suitable. Final assay conditions were determined for the selected pools. For all experiments, batimastat (BB94, 10 μM) was used as positive control for full inhibition of KL2 or TGFα shedding.
The wells of sterile 384-well flat bottom clear plates for TGF-AP assays were coated with 10 μL of 0.1 mg/mL poly-d-lysine for 3-4 hr at 25° C. or overnight at 4° C., then washed 2× with PBS and patted dry. 60 μL of cells (20,000/well) were added to the sterile 384-well plate and incubated in Optimem (with 2% FCS and 1% Pen-strep) overnight at 37° C. (5% CO2). After incubation overnight, 55 μL medium were removed with a BioTek EL406 and 10 μL of prediluted compounds were added to the cells for a final concentration of 20 μM. After incubation for 15 min, 15 μL of PMA (100 ng/mL final conc.) were added. The cells were incubated for 2 h at 37° C. (5% CO2). Then, the plates were centrifuged for 5 min at 1000 rpm and 12 μL of the supernatant was transferred to a fresh 384 well plate. 12 μL of pNPP p-nitrophenyl phosphate (final 1 M pNPP) was added. AP reaction was performed for 1 h at 37° C. The reaction was stopped by addition of 12 μL of NaOH (1 M final conc.), the plates were centrifuged to remove air bubbles and the absorbance of pNP was measured at 405 nm.

[3] = 10 μM final concentration, LPS 50 ng/ml, 2 hours, delta Buffer stimulated vs unstimulated = 100% inhibition

`CNC(=O)[C@H](Cc1ccccc1)NC(=O)[C@H](CC(C)C)[C@H](CSc1cccs1)C(=O)NO` [Batimastat, reference compound] was tested, and the “inhibition of LPS-induced release of TNFα from THP-1 cells” value [1, 3] was 94.9% and the inhibition at 10 µM [1, 3] was 87.4%.

Molecule `CCC(=O)NCCc1c(/C=C2/C(=O)NC(=O)N(c3ccc(C)cc3C)C2=O)[nH]c2ccccc12` [Compound 1] has an inhibition at 10 µM [1] of 100%.

In the case of `CCOC(=O)c1ccc(Nc2nc3nonc3n3nnnc23)cc1` [Compound 2], the inhibition at 10 µM [1, 3] is reported as 94.6%.

In the case of `O=C(c1c(Cl)cccc1Cl)N1CCC(Cc2ccc(F)cc2)CC1` [Compound 3], the IC50 [2] is reported as greater than 40 µM and the inhibition at 10 µM [1, 3] is reported as 93.1%.

`Cc1c(C(=O)NCc2cccs2)sc(=O)n1Cc1ccccc1` [Compound 4] was tested, and the IC50 [2] was greater than 40 µM and the inhibition at 10 µM [1, 3] was 58.2%.

With `Cc1c(C(=O)NCc2cccs2)sc(=O)n1Cc1ccccc1F` [Compound 5] the IC50 [2] was greater than 40 µM and the inhibition at 10 µM [1, 3] was 66.1%.

With `Cc1c(C(=O)NCc2ccco2)sc(=O)n1Cc1ccccc1F` [Compound 7] the IC50 [2] was greater than 40 µM and the inhibition at 10 µM [1, 3] was 85.8%.
